What all share (type): physicochemical
Data set [1] is described as follows: Particle size distribution (PSD) by laser diffraction, Malvern Mastersizer 3000. The protocol: (§1) Three precipitation runs (approximately 600-700 mg) were conducted on the RC612B precipitation unit, according to the examples provided on the preceding pages. Solvent was the single variable modified between each group of three precipitations. The precipitates were analyzed by laser diffraction to determine PSD, BET sorptometry to determine SSA, SEM to determine habit and support PSD and SSA data, and PXRD to determine crystalline/amorphous form.
PSD analyses were conducted on a Malvern Mastersizer™ 3000 using the Aero S dispersion unit according to the manufacturer instructions.

The nature of data set [2]: Specific surface area (SSA) by BET sorptometry. As to the method:
As used herein, the “specific surface area” is the total surface area of the sorafenib particle per unit of sorafenib mass as measured by the Brunauer—Emmett—Teller (“BET”) isotherm (i.e.: the BET SSA). As will be understood by those of skill in the art, the SSA is determined on a per gram basis and takes into account both agglomerated and non-agglomerated sorafenib particles in the composition. The BET specific surface area test procedure is a compendial method included in both the United States Pharmaceopeia and the European Pharmaceopeia.
as §1
SSA determination analyses were conducted on a Quantachrome NOVAtouch™ LX^2 BET Sorptometer or a Porous Materials, Inc., Automated BET Sorptometer BET-202A according to the manufacturer instructions.

Data set [3] in a line: Shake-flask solubility in organic solvent/water mixtures. The following applies: for Concentration of Sorafenib Found: 24 hours, 20-25° C. The protocol:
This method was conducted in acidic media. Development of a discriminating dissolution method at neutral pH (6.8 to 7.4) was pursued, as relevant for potential intra-tumoral delivery of the drug. The addition of organic solvents was used to increase the solubility of the compounds at neutral pH.
Solubility was determined by using a shake-flask method. The drug was added in excess to each solution prepared in duplicate. The vials were placed on a mechanical shaker for 24 hours at 20-25° C. After shaking, solution was removed and filtered through a 0.2 μm PTFE syringe filter and analyzed by UV/Visible spectrophotometry.

Here are results for one molecule from patent US20230364021A1 (CRITITECH, INC., priority 2020, published 2023).

`CNC(=O)c1cc(Oc2ccc(NC(=O)Nc3ccc(Cl)c(C(F)(F)F)c3)cc2)ccn1` [Sorafenib, 4-(4-((((4-Chloro-3-(trifluoromethyl)phenyl)amino)carbonyl)amino)phenoxy)-N-methyl-2-pyridinecarboxamide]: the “PSD: Volume Dv-10” value in data set [1] was determined as 12.3 μm. The SSA in data set [2] (listed as Raw) is recorded as 1.02 m^2/g; in data set [2] (listed as unprocessed material), 0.88 m^2/g. Besides, the “Concentration of Sorafenib Found” value was determined as 553 µg/mL in data set [3] (Ethanol, water to organic solvent ratio 25/75); 325 µg/mL in data set [3] (Ethanol, water to organic solvent ratio 50/50); 503 µg/mL in data set [3] (Methanol, water to organic solvent ratio 25/75); 41.4 µg/mL in data set [3] (Methanol, water to organic solvent ratio 50/50); 2.45 µg/mL in data set [3] (Methanol, water to organic solvent ratio 75/25). The “Solubility versus organic solvent concentration” value in data set [3] (methanol/water and ethanol/water, both solvents) is “concentration dependent solubility”.
